Test results as given in ChEMBL document CHEMBL5500376, “Novel pyxinol amide derivatives bearing an aliphatic heterocycle as P-glycoprotein modulators for overcoming multidrug resistance” (Eur J Med Chem, 2024).
Values joined by “and” are separate entries in the source; they are usually repeats but may differ in a detail not shown here. Equal values may be shown once.

Assays:
[1] = Reversal of multi-drug resistance in human KVB cells assessed as increase in PTX-induced cytotoxicity by measuring cell survival at 5 uM measured after 72 hrs incubation in presence of 100 nM paclitaxel by MTT assay relative to control; format: functional, KBV
[2] = Cytotoxicity against human KBV cells assessed as cell survival at 10 uM measured after 72 hrs incubation by MTT assay relative to control; format: functional; conditions: read-out: Activity
[3] = Reversal of multi-drug resistance in human KVB cells assessed as increase in PTX-induced cytotoxicity by measuring cell survival at 10 uM measured after 72 hrs incubation in presence of 100 nM paclitaxel by MTT assay relative to control; format: functional, KBV
[4] = Reversal fold, ratio of PTX IC50 to PTX IC50 in presence of test compound for reversal of multi-drug resistance in human KVB cells at 10 uM measured after 72 hrs by MTT assay; format: functional, KBV
[5] = biological target: ATP-dependent translocase ABCB1 (Homo sapiens, UniProt P08183); experiment: Substrate activity at Pgp in human KVB cells assessed as intracellular accumulation measured after 4 hrs by LC-MS/MS analysis; format: cell-based; conditions: kbv
Sequence of ATP-dependent translocase ABCB1 (P08183 whole entry): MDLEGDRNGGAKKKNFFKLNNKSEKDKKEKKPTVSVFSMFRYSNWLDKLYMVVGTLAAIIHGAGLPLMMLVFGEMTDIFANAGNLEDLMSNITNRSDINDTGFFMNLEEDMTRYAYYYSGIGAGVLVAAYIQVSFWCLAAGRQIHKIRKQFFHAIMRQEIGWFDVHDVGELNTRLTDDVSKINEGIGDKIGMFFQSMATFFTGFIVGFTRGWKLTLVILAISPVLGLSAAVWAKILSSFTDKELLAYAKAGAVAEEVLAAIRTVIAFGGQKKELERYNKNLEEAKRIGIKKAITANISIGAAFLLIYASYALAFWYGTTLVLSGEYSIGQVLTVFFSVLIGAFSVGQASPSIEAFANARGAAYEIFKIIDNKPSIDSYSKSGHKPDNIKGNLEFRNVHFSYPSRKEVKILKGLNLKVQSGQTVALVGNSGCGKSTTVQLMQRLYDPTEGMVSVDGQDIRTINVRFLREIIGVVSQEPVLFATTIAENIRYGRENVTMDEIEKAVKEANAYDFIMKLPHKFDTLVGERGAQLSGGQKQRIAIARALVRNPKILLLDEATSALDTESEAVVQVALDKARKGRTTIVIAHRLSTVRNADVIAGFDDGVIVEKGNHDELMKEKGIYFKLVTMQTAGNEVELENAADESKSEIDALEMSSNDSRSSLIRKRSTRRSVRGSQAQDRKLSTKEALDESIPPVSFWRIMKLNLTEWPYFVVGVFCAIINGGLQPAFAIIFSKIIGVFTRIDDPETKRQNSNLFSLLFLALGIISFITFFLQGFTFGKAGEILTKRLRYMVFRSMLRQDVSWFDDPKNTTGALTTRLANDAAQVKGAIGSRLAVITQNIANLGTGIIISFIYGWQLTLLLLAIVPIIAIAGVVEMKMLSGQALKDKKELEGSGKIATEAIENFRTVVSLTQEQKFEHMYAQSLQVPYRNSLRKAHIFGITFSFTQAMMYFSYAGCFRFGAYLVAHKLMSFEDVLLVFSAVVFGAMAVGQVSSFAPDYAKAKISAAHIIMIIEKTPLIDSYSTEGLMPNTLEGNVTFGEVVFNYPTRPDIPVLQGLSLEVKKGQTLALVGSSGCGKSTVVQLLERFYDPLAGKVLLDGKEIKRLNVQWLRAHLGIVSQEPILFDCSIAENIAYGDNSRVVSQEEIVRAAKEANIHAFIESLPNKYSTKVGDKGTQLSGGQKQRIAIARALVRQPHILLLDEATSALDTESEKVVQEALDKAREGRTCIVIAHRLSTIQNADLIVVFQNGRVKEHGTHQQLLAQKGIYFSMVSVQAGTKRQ

For `CC(C)(O)[C@H]1CC[C@@](C)([C@H]2CC[C@]3(C)[C@@H]2[C@H](O)C[C@@H]2[C@@]4(C)CC[C@H](NC(=O)[C@@H]5CC(F)(F)CN5)C(C)(C)[C@@H]4CC[C@]23C)O1`, the Activity [1] was 78%, the viability at 10 µM [2] was 95% and the Activity [3] was 62%.

In the case of `CC(C)(C)OC(=O)N1CCCC[C@@H]1C(=O)N[C@H]1CC[C@]2(C)[C@H]3C[C@@H](O)[C@@H]4[C@@H]([C@]5(C)CC[C@H](C(C)(C)O)O5)CC[C@@]4(C)[C@]3(C)CC[C@H]2C1(C)C`, the Activity [1] is reported as 42%, the viability at 10 µM [2] is reported as 118% and the Activity [3] is reported as 27%.

In the case of `CC(C)(C)OC(=O)N1CC(F)(F)C[C@H]1C(=O)N[C@H]1CC[C@]2(C)[C@H]3C[C@@H](O)[C@@H]4[C@@H]([C@]5(C)CC[C@H](C(C)(C)O)O5)CC[C@@]4(C)[C@]3(C)CC[C@H]2C1(C)C`, the Activity [1] is reported as 65%, the viability at 10 µM [2] is reported as 100% and the Activity [3] is reported as 64%.

`CC(C)(O)[C@H]1CC[C@@](C)([C@H]2CC[C@]3(C)[C@@H]2[C@H](O)C[C@@H]2[C@@]4(C)CC[C@H](NC(=O)CC5CNC5)C(C)(C)[C@@H]4CC[C@]23C)O1` gave an Activity [1] of 95%, a viability at 10 µM [2] of 96% and an Activity [3] of 90%.

Work on `CC(C)(O)[C@H]1CC[C@@](C)([C@H]2CC[C@]3(C)[C@@H]2[C@H](O)C[C@@H]2[C@@]4(C)CC[C@H](NC(=O)C5CNC5)C(C)(C)[C@@H]4CC[C@]23C)O1` yielded an Activity [1] of 76%, a viability at 10 µM [2] of 97% and an Activity [3] of 61%.

`CC(C)(O)[C@H]1CC[C@@](C)([C@H]2CC[C@]3(C)[C@@H]2[C@H](O)C[C@@H]2[C@@]4(C)CC[C@H](NC(=O)[C@@H]5CCC(=O)O5)C(C)(C)[C@@H]4CC[C@]23C)O1` gave an Activity [1] of 95%, a viability at 10 µM [2] of 104% and an Activity [3] of 94%.

For `CC(C)(O)[C@H]1CC[C@@](C)([C@H]2CC[C@]3(C)[C@@H]2[C@H](O)C[C@@H]2[C@@]4(C)CC[C@H](NC(=O)[C@H]5CCCCN5)C(C)(C)[C@@H]4CC[C@]23C)O1`, the Ratio ([4]; 72 h, 10 µM) was 89.1 and 106.3, the Activity [1] was 56% and the viability at 10 µM [2] was 99%. The Activity [3] was 28%.

For `CC(C)(O)[C@H]1CC[C@@](C)([C@H]2CC[C@]3(C)[C@@H]2[C@H](O)C[C@@H]2[C@@]4(C)CC[C@H](NC(=O)[C@H]5CCCNC5)C(C)(C)[C@@H]4CC[C@]23C)O1`, the Activity [1] was 83%, the viability at 10 µM [2] was 94% and the Activity [3] was 45%.

`CC(C)(O)[C@H]1CC[C@@](C)([C@H]2CC[C@]3(C)[C@@H]2[C@H](O)C[C@@H]2[C@@]4(C)CC[C@H](NC(=O)[C@H]5CCCN5)C(C)(C)[C@@H]4CC[C@]23C)O1` showed an Activity [1] of 73%, a viability at 10 µM [2] of 109% and an Activity [3] of 63%.

With `CC(C)(C)OC(=O)N1CCC[C@H](C(=O)N[C@H]2CC[C@]3(C)[C@H]4C[C@@H](O)[C@@H]5[C@@H]([C@]6(C)CC[C@H](C(C)(C)O)O6)CC[C@@]5(C)[C@]4(C)CC[C@H]3C2(C)C)C1` the Activity [1] was 76%, the viability at 10 µM [2] was 93% and the Activity [3] was 47%.

In the case of `CC(C)(C)OC(=O)N1CC(C(=O)N[C@H]2CC[C@]3(C)[C@H]4C[C@@H](O)[C@@H]5[C@@H]([C@]6(C)CC[C@H](C(C)(C)O)O6)CC[C@@]5(C)[C@]4(C)CC[C@H]3C2(C)C)C1`, the Activity [1] is reported as 80%, the viability at 10 µM [2] is reported as 91% and the Activity [3] is reported as 54%.

`CC(C)(O)[C@H]1CC[C@@](C)([C@H]2CC[C@]3(C)[C@@H]2[C@H](O)C[C@@H]2[C@@]4(C)CC[C@H](NC(=O)[C@H]5CCN5)C(C)(C)[C@@H]4CC[C@]23C)O1` gave an Activity [1] of 86%, a viability at 10 µM [2] of 70% and an Activity [3] of 68%.

With `CC(C)(C)OC(=O)N1CCC[C@@H]1C(=O)N[C@H]1CC[C@]2(C)[C@H]3C[C@@H](O)[C@@H]4[C@@H]([C@]5(C)CC[C@H](C(C)(C)O)O5)CC[C@@]4(C)[C@]3(C)CC[C@H]2C1(C)C` the Ratio [4] was 157.7, the Activity [1] was 36% and the Activity [5] was “Active”. It also gave a viability at 10 µM [2] of 88% and an Activity [3] of 21%.

`CC(C)(C)OC(=O)N1C[C@H](F)C[C@H]1C(=O)N[C@H]1CC[C@]2(C)[C@H]3C[C@@H](O)[C@@H]4[C@@H]([C@]5(C)CC[C@H](C(C)(C)O)O5)CC[C@@]4(C)[C@]3(C)CC[C@H]2C1(C)C` showed a Ratio [4] of 102.4, an Activity [1] of 46% and a viability at 10 µM [2] of 114%. For the same compound, the Activity [3] was 26%.

In the case of `CC(C)(O)[C@H]1CC[C@@](C)([C@H]2CC[C@]3(C)[C@@H]2[C@H](O)C[C@@H]2[C@@]4(C)CC[C@H](O)C(C)(C)[C@@H]4CC[C@]23C)O1`, the Activity [5] is reported as “Not Active”.

`CC(C)(O)[C@H]1CC[C@@](C)([C@H]2CC[C@]3(C)[C@@H]2[C@H](O)C[C@@H]2[C@@]4(C)CC[C@H](NC(=O)[C@@H]5CCC(=O)N5)C(C)(C)[C@@H]4CC[C@]23C)O1` showed an Activity [1] of 93%, a viability at 10 µM [2] of 100% and an Activity [3] of 87%.

With `CC(C)(O)[C@H]1CC[C@@](C)([C@H]2CC[C@]3(C)[C@@H]2[C@H](O)C[C@@H]2[C@@]4(C)CC[C@H](NC(=O)[C@@H]5CCCN5)C(C)(C)[C@@H]4CC[C@]23C)O1` the Ratio [4] was 65.1, the Activity [1] was 38% and the Activity [5] was “Not Active”. It also gave a viability at 10 µM [2] of 100% and an Activity [3] of 30%.

`CC(C)(C)OC(=O)N1CC[C@@H]1C(=O)N[C@H]1CC[C@]2(C)[C@H]3C[C@@H](O)[C@@H]4[C@@H]([C@]5(C)CC[C@H](C(C)(C)O)O5)CC[C@@]4(C)[C@]3(C)CC[C@H]2C1(C)C` showed a Ratio [4] of 100.1, an Activity [1] of 47% and a viability at 10 µM [2] of 99%. For the same compound, the Activity [3] was 27%.

For `CC(C)(O)[C@H]1CC[C@@](C)([C@H]2CC[C@]3(C)[C@@H]2[C@H](O)C[C@@H]2[C@@]4(C)CC[C@H](NC(=O)[C@@H]5C[C@@H](F)CN5)C(C)(C)[C@@H]4CC[C@]23C)O1`, the Activity [1] was 78%, the viability at 10 µM [2] was 99% and the Activity [3] was 66%.

`CC(C)(C)OC(=O)N1CCOC[C@H]1C(=O)N[C@H]1CC[C@]2(C)[C@H]3C[C@@H](O)[C@@H]4[C@@H]([C@]5(C)CC[C@H](C(C)(C)O)O5)CC[C@@]4(C)[C@]3(C)CC[C@H]2C1(C)C` showed an Activity [1] of 81%, a viability at 10 µM [2] of 89% and an Activity [3] of 55%.

In the case of `CC(C)(C)OC(=O)N1CCCC[C@H]1C(=O)N[C@H]1CC[C@]2(C)[C@H]3C[C@@H](O)[C@@H]4[C@@H]([C@]5(C)CC[C@H](C(C)(C)O)O5)CC[C@@]4(C)[C@]3(C)CC[C@H]2C1(C)C`, the Ratio [4] is reported as 66, the Activity [1] is reported as 61% and the viability at 10 µM [2] is reported as 102%. The Activity [3] was 26%.

Compound `CC(C)(O)[C@H]1CC[C@@](C)([C@H]2CC[C@]3(C)[C@@H]2[C@H](O)C[C@@H]2[C@@]4(C)CC[C@H](NC(=O)[C@H]5C[C@@H](O)CN5)C(C)(C)[C@@H]4CC[C@]23C)O1` has an Activity [1] of 95%, a viability at 10 µM [2] of 98% and an Activity [3] of 98%.

`CC(C)(O)[C@H]1CC[C@@](C)([C@H]2CC[C@]3(C)[C@@H]2[C@H](O)C[C@@H]2[C@@]4(C)CC[C@H](NC(=O)[C@H]5CCC(=O)N5)C(C)(C)[C@@H]4CC[C@]23C)O1` gave an Activity [1] of 93%, a viability at 10 µM [2] of 92% and an Activity [3] of 87%.

With `CC(C)(O)[C@H]1CC[C@@](C)([C@H]2CC[C@]3(C)[C@@H]2[C@H](O)C[C@@H]2[C@@]4(C)CC[C@H](NC(=O)[C@@H]5COCCN5)C(C)(C)[C@@H]4CC[C@]23C)O1` the Activity [1] was 82%, the viability at 10 µM [2] was 89% and the Activity [3] was 57%.

`CC(C)(O)[C@H]1CC[C@@](C)([C@H]2CC[C@]3(C)[C@@H]2[C@H](O)C[C@@H]2[C@@]4(C)CC[C@H](NC(=O)[C@@H]5CCNC5)C(C)(C)[C@@H]4CC[C@]23C)O1` showed an Activity [1] of 67%, a viability at 10 µM [2] of 99% and an Activity [3] of 49%.

Work on `CC1(C(=O)N[C@H]2CC[C@]3(C)[C@H]4C[C@@H](O)[C@@H]5[C@@H]([C@]6(C)CC[C@H](C(C)(C)O)O6)CC[C@@]5(C)[C@]4(C)CC[C@H]3C2(C)C)COC1` yielded an Activity [1] of 59%, a viability at 10 µM [2] of 84% and an Activity [3] of 50%.

For `CC(C)(C)OC(=O)NCCCCCC(=O)N[C@H]1CC[C@]2(C)[C@H]3C[C@@H](O)[C@@H]4[C@@H]([C@]5(C)CC[C@H](C(C)(C)O)O5)CC[C@@]4(C)[C@]3(C)CC[C@H]2C1(C)C`, the Activity [5] was “Active”.

`C[S+](C)[O-]` [DIMETHYL SULFOXIDE] gave an Activity [1] of 100%, a viability at 10 µM [2] of 100% and an Activity [3] of 100%.

`CC(C)(C)OC(=O)N1C[C@H](O)C[C@H]1C(=O)N[C@H]1CC[C@]2(C)[C@H]3C[C@@H](O)[C@@H]4[C@@H]([C@]5(C)CC[C@H](C(C)(C)O)O5)CC[C@@]4(C)[C@]3(C)CC[C@H]2C1(C)C` gave an Activity [1] of 90%, a viability at 10 µM [2] of 105% and an Activity [3] of 93%.

`CC(=O)N1CCC[C@H]1C(=O)N[C@H]1CC[C@]2(C)[C@H]3C[C@@H](O)[C@@H]4[C@@H]([C@]5(C)CC[C@H](C(C)(C)O)O5)CC[C@@]4(C)[C@]3(C)CC[C@H]2C1(C)C` gave an Activity [1] of 80%, a viability at 10 µM [2] of 97% and an Activity [3] of 63%.

`CC(C)(C)OC(=O)N1CC[C@@H](C(=O)N[C@H]2CC[C@]3(C)[C@H]4C[C@@H](O)[C@@H]5[C@@H]([C@]6(C)CC[C@H](C(C)(C)O)O6)CC[C@@]5(C)[C@]4(C)CC[C@H]3C2(C)C)C1` showed a Ratio [4] of 76, an Activity [1] of 54% and a viability at 10 µM [2] of 81%. For the same compound, the Activity [3] was 31%.
